# Data taken from patent US8247403B2, “Benzoxazepine derivatives and use thereof” (Takeda Pharmaceutical Company Limited, priority 2007, dated 2012).
# Structures can show the parent of a compound that is named as a salt.
# Key:
# [1] = molecular target: serotonin 5-HT2C receptor (Homo sapiens, UniProt P28335, I156V/I160V/N158S); assay: cell-based; conditions: CHO, read-out: ratio to maximum response by 5-HT (1 μM)
# [2] = test system: female spinal cord transected rat whose hypogastric nerve and pudendal nerves were bilaterally cut; assay: Urethral closure response induced by increased bladder pressure in rat with hypogastric and pudendal nerves cut; format: in vivo
# Protocol: SD female rats (body weight 230-274 g) were anesthetized with urethane (Wako Pure Chemical Industries, Ltd.), and the spinal cord was cut at T8-9 level to eliminate the micturition reflex. During the operation, halothane (Takeda Pharmaceutical Company Limited) anesthesia was added as necessary. The abdomen was opened, the bladder neck was ligated with a suture thread, and then, the hypogastric nerve and the pudendal nerves were bilaterally cut. A catheter (PE-90, Clay Adams) was inserted in the bladder, and the other end of the bladder catheter was connected to the pressure transducer and an aquatic reservoir (60 ml syringe) of saline via a three-way cock. A microchip transducer catheter (SPR-524, Millar Instruments Inc.) was inserted from the urethral orifice toward the bladder, and the transducer part was adjusted to be in the urethra at 10.0-15.0 mm from the urethral orifice using the scale on the catheter surface. The topical changes in the urethral pressure (hereinafter to be referred to as urethral pressure for convenience) measured by the microchip transducer were input into a computer via an amplifier (BP Amp; ADINSTRUMENTS) and a data analyzer (Powerlab 4/25; ADINSTRUMENTS; sampled at 1000 Hz), and recorded on a hard disk. […] The response of the urethra induced by the increased bladder pressure was repeatedly measured, and the average value of the last two measures was taken as the value before drug administration. The evaluation item was reflective urethral closure response, and the average urethral pressure for 30 seconds before increasing the bladder pressure and 30 seconds when the bladder pressure was raised to 50 cm was calculated. Then, the value before bladder pressure increase was subtracted from the value during bladder pressure increase and taken as the urethral closure response. […] The drug was dissolved in saline with dimethylformamide, and intravenously administered at 1 ml/kg.
# Sequence of serotonin 5-HT2C receptor (P28335 33-458 I156V/N158S/I160V limits assumed): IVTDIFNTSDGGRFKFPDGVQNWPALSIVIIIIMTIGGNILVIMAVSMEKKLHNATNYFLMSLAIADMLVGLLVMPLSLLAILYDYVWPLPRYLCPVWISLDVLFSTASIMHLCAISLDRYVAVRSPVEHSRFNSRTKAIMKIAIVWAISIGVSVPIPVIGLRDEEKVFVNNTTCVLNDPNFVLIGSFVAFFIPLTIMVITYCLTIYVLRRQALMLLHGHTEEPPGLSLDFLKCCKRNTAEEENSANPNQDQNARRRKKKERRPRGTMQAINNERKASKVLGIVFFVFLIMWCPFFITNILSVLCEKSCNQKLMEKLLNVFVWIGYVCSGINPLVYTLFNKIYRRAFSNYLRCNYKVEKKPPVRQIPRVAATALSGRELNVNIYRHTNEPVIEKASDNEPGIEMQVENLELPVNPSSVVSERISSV
Compound,activation at 1 µM [1] [%],further results
"c1cc2c(c(C3CCOC3)c1)OCCNC2 (centres unmarked) [Example 55, 9-(tetrahydrofuran-3-yl)-2,3,4,5-tetrahydro-1,4-benzoxazepine hydrochloride]",103,
"FC(F)(F)c1ccccc1-c1cccc2c1OCCNC2 [Example 12, 9-[2-(trifluoromethyl)phenyl]-2,3,4,5-tetrahydro-1,4-benzoxazepine hydrochloride]",93.6,
"c1ccc(-c2cccc3c2OCCNC3)cc1 [Example 9, 9-phenyl-2,3,4,5-tetrahydro-1,4-benzoxazepine hydrochloride]",93.1,
"FC1(F)CCN(c2cccc3c2OCCNC3)C1 [Example 58, 9-(3,3-difluoropyrrolidin-1-yl)-2,3,4,5-tetrahydro-1,4-benzoxazepine]",95.5,
"c1cc2c(cc1N1CCOCC1)OCCNC2 [Example 1, 8-(morpholin-4-yl)-2,3,4,5-tetrahydro-1,4-benzoxazepine hydrochloride]",95.4,
"c1cc2c(c(C3CC3)c1)OCCNC2 [Example 64, 9-cyclopropyl-2,3,4,5-tetrahydro-1,4-benzoxazepine hydrochloride]",94.6,
"Cl.c1cc2c(c(C3CCC3)c1)OCCNC2 [Example 63, 9-cyclobutyl-2,3,4,5-tetrahydro-1,4-benzoxazepine hydrochloride]",97.6,"Urethral closure response, after drug administration ([2]; 3 mg/kg i.v., 10 min after administration, n=6, bladder pressure raised to 50 cm H2O): 6.2 ± 0.9 cm H2O; Urethral closure response, increase ([2]; 3 mg/kg i.v., difference between after and before drug administration, P < 0.001 vs vehicle): 4.4 ± 0.7 cm H2O; Urethral closure response, before drug administration ([2]; baseline of the 3 mg/kg i.v. group, n=6, bladder pressure raised to 50 cm H2O): 1.8 ± 0.5 cm H2O; effect on urethral closure response induced by increased bladder pressure (in words) ([2]; intravenous administration, bladder pressure 0 to 50 cm H2O): significantly increased the urethral closure response"
"Clc1ccccc1-c1cccc2c1OCCNC2 [Example 10, 9-(2-chlorophenyl)-2,3,4,5-tetrahydro-1,4-benzoxazepine hydrochloride]",94,
"CCN(CC)c1ccc2c(c1)OCCNC2 [Example 5, N,N-diethyl-2,3,4,5-tetrahydro-1,4-benzoxazepine-8-amine dihydrochloride]",91.9,
"CC(C)N(C)c1ccc2c(c1)OCCNC2 [Example 4, N-isopropyl-N-methyl-2,3,4,5-tetrahydro-1,4-benzoxazepine-8-amine dihydrochloride]",100,
"c1cc2c(c(-c3ccsc3)c1)OCCNC2 [Example 16, 9-(3-thienyl)-2,3,4,5-tetrahydro-1,4-benzoxazepine hydrochloride]",99.1,
"Cc1ccccc1-c1cccc2c1OCCNC2 [Example 11, 9-(2-methylphenyl)-2,3,4,5-tetrahydro-1,4-benzoxazepine hydrochloride]",92.7,
"C1=C(c2cccc3c2OCCNC3)CCC1 [Example 26, 9-(cyclopenta-1-en-1-yl)-2,3,4,5-tetrahydro-1,4-benzoxazepine hydrochloride]",101,
"CCN(C)c1ccc2c(c1)OCCNC2 [Example 6, N-ethyl-N-methyl-2,3,4,5-tetrahydro-1,4-benzoxazepine-8-amine dihydrochloride]",102,
"c1cc2c(cc1N1CCCC1)OCCNC2 [Example 2, 8-(pyrrolidin-1-yl)-2,3,4,5-tetrahydro-1,4-benzoxazepine dihydrochloride]",93.1,
"CC(c1cccc2c1OCCNC2)C(F)(F)F (centres unmarked) [Example 59, 9-(2,2,2-trifluoro-1-methylethyl)-2,3,4,5-tetrahydro-1,4-benzoxazepine hydrochloride]",95.2,
"c1cc2c(c(-c3ccoc3)c1)OCCNC2 [Example 15, 9-(3-furyl)-2,3,4,5-tetrahydro-1,4-benzoxazepine hydrochloride]",96.2,
"c1cc2c(cc1N1CCCCC1)OCCNC2 [Example 3, 8-(piperidin-1-yl)-2,3,4,5-tetrahydro-1,4-benzoxazepine dihydrochloride]",94.3,
"c1cc2c(c(N3CCCC3)c1)OCCNC2 [Example 7, 9-(pyrrolidin-1-yl)-2,3,4,5-tetrahydro-1,4-benzoxazepine dihydrochloride]",107,
